# Reference: publication PMC12136037, “Type II kinase inhibitors that target Parkinson’s disease–associated LRRK2” (Science Advances, 2025)
# Where “and” joins values, the source holds several entries; their conditions need not be identical. Equal entries are not always repeated.
# Assays:
# [1] = target: T1, LRRK2^RCKW (Homo sapiens, UniProt Q5S007); assay: Biochemical LRRK2 activity assay (PhosphoSense, AssayQuant SOX peptide AQT0615); conditions: for IC50: LRRK2^RCKW kinase activity, in vitro; for normalized response (LRRK2 activity): normalized to 0% (no kinase) and 100% (no inhibitor) control, two singlicate columns per compound
# T1 construct: LRRK2 R1327 to E2527; His6-Z-tag (TEV cleavable) (N, cleaved yes); host or cells: Sf9 insect cells (baculovirus)
# T1 sequence (Q5S007 1327-2527): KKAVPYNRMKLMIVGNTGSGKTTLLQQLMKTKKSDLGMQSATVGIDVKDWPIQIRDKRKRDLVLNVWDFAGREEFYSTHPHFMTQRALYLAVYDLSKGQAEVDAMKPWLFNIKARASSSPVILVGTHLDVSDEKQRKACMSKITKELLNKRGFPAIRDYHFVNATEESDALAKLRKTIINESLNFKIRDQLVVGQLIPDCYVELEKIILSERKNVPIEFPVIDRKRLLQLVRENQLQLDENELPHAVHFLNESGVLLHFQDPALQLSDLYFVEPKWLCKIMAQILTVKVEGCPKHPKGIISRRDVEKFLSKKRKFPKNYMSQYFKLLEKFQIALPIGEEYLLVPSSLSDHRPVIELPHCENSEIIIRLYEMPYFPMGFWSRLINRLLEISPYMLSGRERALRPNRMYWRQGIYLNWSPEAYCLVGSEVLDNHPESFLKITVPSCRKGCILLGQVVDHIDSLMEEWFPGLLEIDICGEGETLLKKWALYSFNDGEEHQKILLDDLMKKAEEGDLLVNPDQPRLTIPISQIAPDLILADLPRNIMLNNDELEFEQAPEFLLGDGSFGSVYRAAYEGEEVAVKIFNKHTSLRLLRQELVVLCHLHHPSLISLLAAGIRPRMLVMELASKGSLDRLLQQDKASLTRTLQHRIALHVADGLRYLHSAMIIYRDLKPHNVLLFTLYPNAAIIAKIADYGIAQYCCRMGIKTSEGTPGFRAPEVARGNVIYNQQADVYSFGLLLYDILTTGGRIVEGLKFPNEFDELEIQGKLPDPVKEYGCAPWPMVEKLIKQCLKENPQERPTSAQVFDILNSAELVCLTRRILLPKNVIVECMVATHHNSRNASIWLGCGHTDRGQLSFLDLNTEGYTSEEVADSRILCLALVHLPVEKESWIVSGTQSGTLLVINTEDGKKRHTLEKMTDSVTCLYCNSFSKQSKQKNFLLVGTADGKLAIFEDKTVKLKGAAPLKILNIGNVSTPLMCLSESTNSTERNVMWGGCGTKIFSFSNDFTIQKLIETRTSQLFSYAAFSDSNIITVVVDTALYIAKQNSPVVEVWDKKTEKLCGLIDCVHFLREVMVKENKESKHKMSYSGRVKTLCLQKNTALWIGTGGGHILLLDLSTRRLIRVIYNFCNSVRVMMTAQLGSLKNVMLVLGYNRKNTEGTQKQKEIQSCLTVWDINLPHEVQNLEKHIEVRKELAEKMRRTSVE
# Procedure: Two wells per compound were used as 0% (without protein and compound) and 100% (without compound) control. […] The 0% control wells were filled with 10 μl of pure reaction buffer. With the ECHO, 5 nl of 100 mM ATP was pipetted into each well, the plates were centrifuged at 1500g for 2 min, and the reaction was incubated at room temperature for 4 hours. The fluorescence of the SOX-peptide after 360-nm excitation was measured at 487-nm emission with a PHERAstar plate reader (BMG Labtech). The IC50 values were calculated from a nonlinear regression of the log[inhibitor] versus the normalized response with GraphPad Prism 8 (www.graphpad.com/, RRID:SCR_002798).
# [2] = target: T2, LRRK2^KW (Homo sapiens, UniProt Q5S007); assay: DSF thermal stabilization of LRRK2^KW; format: binding; conditions: DSF, LRRK2^KW, 10 μM inhibitor
# T2 construct: LRRK2 R1847 to E2527; His6-Z-tag (TEV cleavable) (N, cleaved yes); host or cells: Sf9 insect cells (baculovirus)
# T2 sequence (Q5S007 1847-2527): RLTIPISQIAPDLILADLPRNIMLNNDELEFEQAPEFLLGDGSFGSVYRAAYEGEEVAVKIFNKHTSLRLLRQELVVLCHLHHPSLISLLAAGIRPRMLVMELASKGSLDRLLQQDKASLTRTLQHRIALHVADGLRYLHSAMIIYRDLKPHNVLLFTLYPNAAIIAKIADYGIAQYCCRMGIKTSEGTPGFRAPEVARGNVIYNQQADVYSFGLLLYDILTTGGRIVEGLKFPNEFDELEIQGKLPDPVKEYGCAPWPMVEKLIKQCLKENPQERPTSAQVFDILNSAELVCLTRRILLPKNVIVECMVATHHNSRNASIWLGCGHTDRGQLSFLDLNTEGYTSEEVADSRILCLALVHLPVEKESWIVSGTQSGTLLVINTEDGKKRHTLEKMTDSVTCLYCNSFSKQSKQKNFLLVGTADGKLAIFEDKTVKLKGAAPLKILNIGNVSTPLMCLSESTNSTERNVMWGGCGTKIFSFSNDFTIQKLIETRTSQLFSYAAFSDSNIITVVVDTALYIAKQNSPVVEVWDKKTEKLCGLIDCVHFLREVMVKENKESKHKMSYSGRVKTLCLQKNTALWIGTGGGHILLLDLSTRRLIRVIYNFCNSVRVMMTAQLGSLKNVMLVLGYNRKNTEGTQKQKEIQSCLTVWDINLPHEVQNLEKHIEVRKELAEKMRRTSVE
# Procedure: To characterize binding between small molecules and LRRK2^KW, induced thermal stabilization was measured by DSF according to previously established protocols ([47]). In brief, LRRK2^KW was diluted to 4 μM in 20 mM Hepes (pH 7.4), 150 mM NaCl, 0.5 mM TCEP, 0.5% glycerol, 20 μM GDP, and 2.5 mM MgCl2, and SYPRO Orange was added (1:1000, MilliporeSigma). Inhibitor (10 μM) to be tested was added to a final sample volume of 20 μl per well of a 96-well plate (white, Starlab). […] The fluorescence was plotted against the temperature, and the melting point (Tm) was determined as the minimum of the first derivative relative to the control.
IC50 [1],normalized response (LRRK2 activity) ([1]; log[inhibitor(mol)] -4.82391),normalized response (LRRK2 activity) ([1]; log[inhibitor(mol)] -5.12494),normalized response (LRRK2 activity) ([1]; log[inhibitor(mol)] -5.60206),normalized response (LRRK2 activity) ([1]; log[inhibitor(mol)] -6.30103),normalized response (LRRK2 activity) ([1]; log[inhibitor(mol)] -6.90309),normalized response (LRRK2 activity) ([1]; log[inhibitor(mol)] -7.30103),normalized response (LRRK2 activity) ([1]; log[inhibitor(mol)] -7.60206),normalized response (LRRK2 activity) ([1]; log[inhibitor(mol)] -8.09691),normalized response (LRRK2 activity) ([1]; log[inhibitor(mol)] -8.61979),normalized response (LRRK2 activity) ([1]; log[inhibitor(mol)] -9.09691),normalized response (LRRK2 activity) ([1]; log[inhibitor(mol)] -9.39794),∆Tm (K) [2],SMILES
2820 ± 1700 nM,44.1151% and 42.1018%,30.8718% and 33.6962%,50.116% and 50.3008%,30.7392% and 30.2826%,79.3769% and 75.1697%,94.0291% and 93.4725%,99.2059% and 99.0146%,90.4133% and 94.0334%,94.5074% and 96.3707%,98.4515% and 93.6442%,99.1494% and 99.7973%,0.0 K,COc1cc(C(=O)N2CCOCC2)c(F)cc1Nc1nc(N(C)C)c2c(-c3cccc(NC(=O)Nc4cc(C(C)(C)C)nn4-c4ccc(C)cc4)c3)c[nH]c2n1 [Compound 34]
9580 ± 565 nM,–,55.8562% and 55.0924%,86.5066% and 85.5833%,–,96.7944% and 101.803%,96.688% and 103.084%,102.717% and 103.476%,97.9836% and 98.7571%,100.995% and 103.804%,100.705% and 102.156%,104.655% and 105.003%,1.8 K,Cc1ccc(NC(=O)C2(C(=O)Nc3ccc(F)cc3)CC2)cc1-c1c[nH]c2ncnc(N3CCOCC3)c12 [Compound 5]
2110 ± 1190 nM,–,–,49.186% and 49.8222%,82.8654% and 52.2345%,104.293% and 98.1919%,105.91% and 76.5961%,104.315% and 59.7541%,97.675% and 89.444%,99.5438% and 104.868%,109.546% and 62.2548%,105.46% and 118.944%,4.0 K,Cn1cc(NC(=O)C2(C(=O)Nc3cccc(-c4c[nH]c5ncnc(N6CCOCC6)c45)c3)CC2)cn1 [Compound 9]
3180 ± 134 nM,–,28.5996% and 28.8703%,54.9087% and 59.3757%,85.68% and 83.1467%,102.663% and 58.1284%,103.229% and 99.9077%,100.894% and 96.1562%,96.775% and 100.111%,99.9803% and 105.134%,138.579% and 106.168%,136.224% and 108.416%,4.3 K,CN1CCc2cc(NC(=O)C3(C(=O)Nc4cccc(-c5c[nH]c6ncnc(N7CCOCC7)c56)c4)CC3)ccc2C1 [Compound 10]
